Source: paper PMC9925730, “Controlled sequential in situ self-assembly and disassembly of a fluorogenic cisplatin prodrug for cancer theranostics” (Nature Communications, 2023)
Where “and” joins values, the source holds several entries; their conditions need not be identical. Identical values can stand only once. Entries after “also recorded” stand apart in the source; their conditions may differ.

Columns and labels:
[1] = Urine and faeces analysis by HPLC (mCy-containing compounds); type: in vivo; conditions: Time period 8-12 h; individual mice
[2] = Side toxicity in s.c. HeLa tumor-bearing mice (body weight, BUN, CRE, H&E)
[3] = General design summary of signals and cytotoxicity (Fig. 1a)
Source text: P-CyPt is designed to (1) offer activatable near-infrared (NIR) FL and PA signals for bimodality imaging through ALP-mediated in situ self-assembly and (2) release CDDP for on-demand therapy via GSH-triggered disassembly (Fig. 1a). […] After systemic administration, P-CyPt as a small molecule can extravasate and penetrate deeply into tumor tissues (Fig. 1b). In tumor tissues that are membrane-bound ALP positive, rapid dephosphorylation of P-CyPt by the membrane-bound ALP generates CyPt, switching on NIR FL (λem = 710 nm) and PA signals (λ = 700 nm); moreover, CyPt with increased hydrophobicity is susceptible to self-assembly into Pt(IV) nanoparticles (Pt^IVNPs), which turns on another PA signal (λ = 750 nm) resulting from the aggregation-caused bathochromic shift. The on-site formed Pt^IVNPs can anchor on the cell membranes, which attenuate diffusion, prolong retention, and enhance translocation into cells[32],[33]. Within tumor cells, the abundant endogenous GSH can reduce Pt(IV) into Pt(II), producing negatively charged Cy-COOH that promotes NPs disassembly and accelerates release of CDDP intracellularly. This process dramatically raises intracellular CDDP’s concentration while depletes GSH’s level to effectively kill tumor cells. Moreover, the disassembly of Pt^IVNPs into Cy-COOH further increases NIR FL (called as “ON-ON”) as the aggregation-caused quenching (ACQ) effect is eliminated; however, the PA signal at 750 nm is turned off but the PA signal at 700 nm is kept at “ON” state. The sequential switches in NIR FL and PA bimodal imaging signals can allow P-CyPt to reliably monitor the ALP-triggered in situ self-assembly and GSH-driven disassembly process in vivo, facilitating to guide precise chemotherapy of tumors.

[4] = Urine and faeces analysis by ICP-OES (Pt element); type: in vivo, mice; set-up: Pt in urine / Pt in feces: unit not given beside the values
Experimental: page 47: determined using ELISA kits according to manufacturer 's protocol. Determination of the blood circulation half-life. […], or CDDP (at a dose of 2.25 mg kg-1 Pt) was i.v. injected into healthy female BALB/c nude mice (6-8 weeks old). […] The collected blood was digested with concentrated HNO3 (65-70%, 2 mL) and HCl (36~38%, 1 mL) at 90 °C overnight. The residues were then diluted with 5 mL 2% HNO3 and 5% HCl solution, and the concentrations of Pt element were determined by ICP-OES, which were further applied to calculate the contents of Pt element in the blood. The plot of the percentage of Pt element remained in the blood versus injection time to yield the pharmacokinetic time. Urine and Faeces analysis. […] Urine and faeces were collected at 2 (for 0-2 h), 4 (for 2-4 h), 8 (for 4- 8 h) and 12 h (for […]), which were diluted in methanol and centrifuged at 3,600 × g for 10 min, followed by filtering via a 0.22 μm syringe filter. The solutions were analyzed by HPLC (660 nm detection) to characterize all the mCy-containing compounds. Using the established standard curves for […] Cy-COOH, the amount of each compound in the urine and faeces could be calculated, which were further applied to determine the percentage of them in the urine and faeces. The data were summarized in Supplementary Tables 5-8. […] Urine and faeces were collected and weighed. The urine and faeces were digested with concentrated HNO3 (65~70%) and HCl (36~38%) at 90 °C for 24 h. The solution was diluted to 5 mL 2% HNO3 and 5% HCl solution, and the concentration of Pt element was measured by ICP-OES, which was further applied to calculate the percentage of Pt in corresponding urine and faeces. The data were summarized in Supplementary Tables 9 and 10. 47

[5] = Urine and faeces analysis by ICP-OES (Pt element); type: in vivo, mice; set-up: Pt in urine / Pt in feces: unit not given beside the values; remark: listed apart in the source
[6] = test system: orthotopic HepG2/Luc liver tumors; assay: Chemotherapy of orthotopic liver tumors (BL imaging, ex vivo BL and FL imaging); type: in vivo, mice;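 also: bioluminescence quantified by ROI over liver region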
[7] = i.v. 2.25 mg kg-1 Pt, 0-2 h, ICP-OES

Q: For `CC1(C)C(/C=C/C2=C3Oc4cc(OP(=O)(O)O)c(Cl)cc4C=C3CCC2)=[N+](CCCNC(=O)[C@@H](Cc2ccccc2)NC(=O)[C@@H](Cc2ccccc2)NC(=O)CCC(=O)[O][Pt]([NH2])([NH2])([OH])([Cl])[Cl])c2ccccc21` [P-CyPt], which “Compound found in excreta (%), Supplementary Table S5” value [1] is on record?
A: Its value is 1.424% and 1.642% and 1.178%.

Q: What about the “Compound found in excreta (%), Supplementary Table S6” value [1] of the same molecule?
A: The value was 0.04756% and 0.06874% and 0.05951%.

Q: And the “body weight during treatment” value ([2]; 2.25 mg kg^−1 Pt i.v. x5, 21 days)?
A: Its value is “similar”.

Q: What about the “increase of blood urea nitrogen (BUN) level” value ([2]; day 21) of the same molecule?
A: Its value is “not obviously upregulated”.

Q: What about the “increase of creatinine (CRE) level” value ([2]; day 21) of the same molecule?
A: The value was “not obviously upregulated”.

Q: What about the “H&E staining of major organs (side toxicity)” value ([2]; day 21 after 5 doses of 2.25 mg kg^−1 Pt) of the same molecule?
A: The value was “all organs looked normal; also recorded: no apparent cell death”.

Q: What about the Cytotoxicity [3] of the same molecule?
A: The Cytotoxicity was “Low”.

Q: What about the “FL at 710 nm” value [3] of the same molecule?
A: Its value is “Low”.

Q: And the “PA at 700 nm” value [3]?
A: Its value is “Low”.

Q: And the “PA at 750 nm” value [3]?
A: The value was “Low”.

Q: And the “Percentage of Pt element excreted to the faeces” value (from here on “Percentage … to the faeces”) ([4]; 2-4 h)?
A: Its value is 5.92 ± 0.64%.

Q: And the “Percentage of Pt element excreted to the urine” value (shortened to “Percentage … to the urine”) ([4]; 2-4 h)?
A: Its value is 13.38 ± 1.45%.

Q: What about the “Percentage … to the faeces” value ([4]; 4-8 h) of the same molecule?
A: Its value is 16.94 ± 1.87%.

Q: What about the “Percentage … to the urine” value ([4]; 4-8 h) of the same molecule?
A: The value was 9.24 ± 1.49%.

Q: What about the “Percentage … to the urine” value ([4]; 8-12 h) of the same molecule?
A: Its value is 3.41 ± 0.84%.

Q: And the Pt in urine ([4]; Fig.6g, 0-2 h, mean of 3 mice)?
A: Its Pt in urine is 15.772.

Q: And the Pt in urine ([4]; Fig.6g, 0-2 h, single mice)?
A: Its Pt in urine is 15.461 and 17.665 and 14.190.

Q: What about the Pt in urine ([4]; Fig.6g, 2-4 h, mean of 3 mice) of the same molecule?
A: Its Pt in urine is 13.380.

Q: And the Pt in urine ([4]; Fig.6g, 2-4 h, single mice)?
A: Its Pt in urine is 13.090 and 14.953 and 12.095.

Q: And the Pt in urine ([4]; Fig.6g, 4-8 h, mean of 3 mice)?
A: Its Pt in urine is 9.236.

Q: And the Pt in urine ([4]; Fig.6g, 4-8 h, single mice)?
A: Its Pt in urine is 9.456 and 10.608 and 7.644.

Q: What about the Pt in urine ([4]; Fig.6g, 8-12 h, mean of 3 mice) of the same molecule?
A: The Pt in urine was 3.408.

Q: And the Pt in feces ([4]; Fig.6h, 0-2 h, mean of 3 mice)?
A: Its Pt in feces is 0.386.

Q: What about the Pt in feces ([4]; Fig.6h, 0-2 h, single mice) of the same molecule?
A: Its Pt in feces is 0.346 and 0.489 and 0.323.

Q: What about the Pt in feces ([4]; Fig.6h, 2-4 h, mean of 3 mice) of the same molecule?
A: Its Pt in feces is 5.927.

Q: And the Pt in feces ([4]; Fig.6h, 2-4 h, single mice)?
A: The Pt in feces was 5.543 and 6.667 and 5.573.

Q: And the Pt in feces ([4]; Fig.6h, 4-8 h, mean of 3 mice)?
A: The Pt in feces was 16.944.

Q: What about the Pt in feces ([4]; Fig.6h, 4-8 h, single mice) of the same molecule?
A: The Pt in feces was 16.548 and 18.982 and 15.301.

Q: And the Pt in feces ([4]; Fig.6h, 8-12 h, mean of 3 mice)?
A: The Pt in feces was 4.404.

Q: And the “Pt accumulatively cleared (urine + faeces)” value ([4]; during 12 h)?
A: Its value is ~ 69.4%.

Q: What about the Pt in feces ([4]; feces collected 0-2 h, mouse-1) of the same molecule?
A: The Pt in feces was 0.346.

Q: What about the Pt in feces ([4]; feces collected 0-2 h, mouse-2) of the same molecule?
A: The Pt in feces was 0.489.

Q: What about the Pt in feces ([4]; feces collected 0-2 h, mouse-3) of the same molecule?
A: The Pt in feces was 0.323.

Q: And the Pt in feces ([4]; feces collected 2-4 h, mouse-1)?
A: Its Pt in feces is 5.543.

Q: And the Pt in feces ([4]; feces collected 2-4 h, mouse-2)?
A: Its Pt in feces is 6.667.

Q: What about the Pt in feces ([4]; feces collected 2-4 h, mouse-3) of the same molecule?
A: Its Pt in feces is 5.573.

Q: And the Pt in feces ([4]; feces collected 4-8 h, mouse-1)?
A: The Pt in feces was 16.548.

Q: What about the Pt in feces ([4]; feces collected 4-8 h, mouse-2) of the same molecule?
A: The Pt in feces was 18.982.

Q: What about the Pt in feces ([4]; feces collected 4-8 h, mouse-3) of the same molecule?
A: Its Pt in feces is 15.301.

Q: What about the Pt in feces ([4]; feces collected 8-12 h, mouse-1) of the same molecule?
A: The Pt in feces was 4.215.

Q: What about the Pt in feces ([4]; feces collected 8-12 h, mouse-3) of the same molecule?
A: The Pt in feces was 4.002.

Q: What about the “Percentage … to the faeces” value [4, 7] of the same molecule?
A: Its value is 0.38 ± 0.090%.

Q: And the “Percentage … to the urine” value [4, 7]?
A: The value was 15.78 ± 1.76%.

Q: And the “Pt in urine, mean” value ([4]; urine collected 0-2 h, mean of 3 mice)?
A: The value was 15.772.

Q: What about the Pt in urine ([4]; urine collected 0-2 h, mouse-1) of the same molecule?
A: The Pt in urine was 15.461.

Q: What about the Pt in urine ([4]; urine collected 0-2 h, mouse-2) of the same molecule?
A: The Pt in urine was 17.665.

Q: What about the Pt in urine ([4]; urine collected 0-2 h, mouse-3) of the same molecule?
A: The Pt in urine was 14.190.

Q: What about the “Pt in urine, mean” value ([4]; urine collected 2-4 h, mean of 3 mice) of the same molecule?
A: The value was 13.380.

Q: And the Pt in urine ([4]; urine collected 2-4 h, mouse-1)?
A: Its Pt in urine is 13.090.

Q: What about the Pt in urine ([4]; urine collected 2-4 h, mouse-2) of the same molecule?
A: Its Pt in urine is 14.953.

Q: What about the Pt in urine ([4]; urine collected 2-4 h, mouse-3) of the same molecule?
A: The Pt in urine was 12.095.

Q: What about the “Pt in urine, mean” value ([4]; urine collected 4-8 h, mean of 3 mice) of the same molecule?
A: Its value is 9.236.

Q: And the Pt in urine ([4]; urine collected 4-8 h, mouse-1)?
A: Its Pt in urine is 9.456.

Q: What about the Pt in urine ([4]; urine collected 4-8 h, mouse-2) of the same molecule?
A: The Pt in urine was 10.608.

Q: What about the Pt in urine ([4]; urine collected 4-8 h, mouse-3) of the same molecule?
A: The Pt in urine was 7.644.

Q: What about the “Pt in urine, mean” value ([4]; urine collected 8-12 h, mean of 3 mice) of the same molecule?
A: Its value is 3.408.

Q: What about the Pt in urine ([4]; urine collected 8-12 h, mouse-1) of the same molecule?
A: Its Pt in urine is 3.228.

Q: What about the Pt in urine ([4]; urine collected 8-12 h, mouse-2) of the same molecule?
A: The Pt in urine was 4.327.

Q: What about the Pt in urine ([4]; urine collected 8-12 h, mouse-3) of the same molecule?
A: Its Pt in urine is 2.669.

Q: And the “Percentage … to the faeces” value ([5]; 8-12 h)?
A: The value was 4.40 ± 0.52%.

Q: And the Pt in urine ([5]; Fig.6g, 8-12 h, single mice)?
A: Its Pt in urine is 3.228 and 4.327 and 2.669.

Q: And the Pt in feces ([5]; Fig.6h, 8-12 h, single mice)?
A: Its Pt in feces is 4.215 and 4.995 and 4.002.

Q: What about the Pt in feces ([5]; feces collected 8-12 h, mouse-2) of the same molecule?
A: The Pt in feces was 4.995.

Q: What about the “tumor BL intensity of liver” value ([6]; 2.25 mg kg^−1 Pt i.v. day 0, 3, 6, 9, 12, day 3) of the same molecule?
A: The value was 2725.3.

Q: What about the “tumor BL intensity of liver” value ([6]; day 6) of the same molecule?
A: The value was 3155.3.

Q: What about the “tumor BL intensity of liver” value ([6]; day 9) of the same molecule?
A: Its value is 3616.5.

Q: What about the “tumor BL intensity of liver” value ([6]; day 12) of the same molecule?
A: The value was 6594.0.
